The target of this assay is POLRMT (Homo sapiens (Human), UniProt O00411). Briefly: homogeneous TR-FRET assay of mitochondrial transcription (inhibition of POLRMT). The format is biochemical. The settings on record: 7.5 nM POLRMT, 15 nM TFB2M, 30 nM TFAM, 0.5 nM DNA template, 500 μM NTPs, 37° C. for 60 minutes. In short, it runs like this: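 POLRMT transcription from linearized pUC-LSP DNA template; RNA product detected by hybridization of ATTO647 acceptor (1 nM) and biotinylated donor (3 nM) probes plus Europium-streptavidin. Reaction stopped with EDTA/700 mM NaCl buffer, pH 7.5.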
Sequence of POLRMT (O00411 42-1230): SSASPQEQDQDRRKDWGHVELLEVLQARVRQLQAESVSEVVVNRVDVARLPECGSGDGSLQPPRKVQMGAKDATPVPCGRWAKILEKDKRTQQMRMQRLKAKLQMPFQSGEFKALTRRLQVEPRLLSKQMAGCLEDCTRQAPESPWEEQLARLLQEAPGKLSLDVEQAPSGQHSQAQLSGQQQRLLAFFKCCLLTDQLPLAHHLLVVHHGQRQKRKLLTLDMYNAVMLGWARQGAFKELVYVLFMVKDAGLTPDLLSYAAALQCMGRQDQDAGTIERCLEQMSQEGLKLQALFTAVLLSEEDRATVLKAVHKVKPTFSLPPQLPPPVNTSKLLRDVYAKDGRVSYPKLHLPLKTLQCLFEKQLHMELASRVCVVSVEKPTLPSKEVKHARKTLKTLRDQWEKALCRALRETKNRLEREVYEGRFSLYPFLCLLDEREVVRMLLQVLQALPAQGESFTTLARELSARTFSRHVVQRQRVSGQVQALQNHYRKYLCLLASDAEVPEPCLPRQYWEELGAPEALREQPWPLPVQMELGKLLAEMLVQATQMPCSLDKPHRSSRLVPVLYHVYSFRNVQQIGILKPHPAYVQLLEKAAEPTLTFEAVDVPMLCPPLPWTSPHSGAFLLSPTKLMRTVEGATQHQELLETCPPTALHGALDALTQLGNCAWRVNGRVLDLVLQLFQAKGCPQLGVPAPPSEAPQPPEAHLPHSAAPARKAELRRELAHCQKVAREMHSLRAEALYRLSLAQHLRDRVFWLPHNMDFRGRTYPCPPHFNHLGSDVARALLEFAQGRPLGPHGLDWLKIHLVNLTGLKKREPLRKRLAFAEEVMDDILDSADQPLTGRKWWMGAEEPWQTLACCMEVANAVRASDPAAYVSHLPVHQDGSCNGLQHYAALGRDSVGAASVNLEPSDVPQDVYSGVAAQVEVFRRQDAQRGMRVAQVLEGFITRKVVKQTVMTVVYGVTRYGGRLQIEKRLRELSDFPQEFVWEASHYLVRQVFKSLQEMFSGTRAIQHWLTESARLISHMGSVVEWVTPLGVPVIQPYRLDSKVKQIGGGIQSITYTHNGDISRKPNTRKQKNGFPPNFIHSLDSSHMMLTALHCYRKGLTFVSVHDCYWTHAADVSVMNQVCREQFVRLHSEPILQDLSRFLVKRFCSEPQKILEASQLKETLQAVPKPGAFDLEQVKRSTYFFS
(In general: In TR-FRET formats the signal depends on donor and acceptor labels being close together.)

Each structure is given as a SMILES string.

By IC50 is commonly meant the concentration that inhibits the measured activity by half. Read a low IC50 as greater potency. With `CC(=O)NC[C@H]1CCN(C(=O)c2ccc3c(-c4ccccc4C)cc(=O)oc3c2)C1` [Example 174, (R)—N-((1-(2-oxo-4-(o-tolyl)-2H-chromene-7-carbonyl)pyrrolidin-3-yl)methyl)acetamide], the IC50 is 47000 nM.

Compound `CNC(=O)CN(C)c1ccc2c(-c3ccccc3C)cc(=O)oc2c1` [Example 177, N-methyl-2-(methyl(2-oxo-4-(o-tolyl)-2H-chromen-7-yl)amino)acetamide] showed an IC50 of 50 nM.

`Cc1ccccc1-c1cc(=O)oc2cc(N(C)Cc3ccn[nH]3)ccc12` [Example 178, 7-(((1H-pyrazol-5-yl)methyl)(methyl)amino)-4-(o-tolyl)-2H-chromen-2-one] came in with an IC50 of 50 nM.

The compound `Cc1ccccc1-c1cc(=O)oc2cc(N(C)Cc3nnn[nH]3)ccc12` [Example 179, 7-(((1H-tetrazol-5-yl)methyl)(methyl)amino)-4-(o-tolyl)-2H-chromen-2-one] yielded a 50% inhibitory concentration (IC50) of 100 nM.

Compound `CC[C@@H](C(=O)O)N(C)c1ccc2c(-c3ccccc3C)cc(=O)oc2c1` [Example 180, (S)-2-(methyl(2-oxo-4-(o-tolyl)-2H-chromen-7-yl)amino)butanoic acid] had an IC50 of 200 nM.

`Cc1ccccc1-c1cc(=O)oc2cc(C(=O)N3CCC(CN(C)C)C3)ccc12` (stereo not shown) [Example 181, 7-(3-((dimethylamino)methyl)pyrrolidine-1-carbonyl)-4-(o-tolyl)-2H-chromen-2-one] showed an IC50 of over 100000 nM.

In the case of `COC(=O)C1CN(C(=O)c2ccc3c(-c4ccccc4C)cc(=O)oc3c2)C1` [Example 182, methyl 1-(2-oxo-4-(o-tolyl)-2H-chromene-7-carbonyl) azetidine-3-carboxylate], 12000 nM corresponded to half-maximal inhibition (IC50).

`Cc1ccccc1-c1cc(=O)oc2cc(C(=O)N3CC(C(N)=O)C3)ccc12` [Example 183, 1-(2-oxo-4-(o-tolyl)-2H-chromene-7-carbonyl) azetidine-3-carboxamide] returned a half-maximal inhibitory concentration (IC50) of 7000 nM.

Consider `Cc1ccccc1-c1cc(=O)oc2cc(NCc3nnn[nH]3)ccc12` [Example 184, 7-(((1H-tetrazol-5-yl)methyl)amino)-4-(o-tolyl)-2H-chromen-2-one], for which the midpoint of inhibition, the IC50, lay at 3000 nM.

Compound `Cc1ccccc1-c1cc(=O)oc2cc(NCc3ccon3)ccc12` [Example 185, 7-((isoxazol-3-ylmethyl)amino)-4-(o-tolyl)-2H-chromen-2-one] gave a concentration for half-maximal inhibition (IC50) of 700 nM.

`C[C@@H](Cc1ccc2c(-c3ccc(F)cc3Cl)cc(=O)oc2c1)C(=O)N1CCC[C@H](C(=O)O)C1` [Example 186, (S)-1-((S)-3-(4-(2-chloro-4-fluorophenyl)-2-oxo-2H-chromen-7-yl)-2-methylpropanoyl)piperidine-3-carboxylic acid]: the IC50 is 28000 nM.

On to `C[C@H](Cc1ccc2c(-c3ccc(F)cc3Cl)cc(=O)oc2c1)C(=O)N1CCC[C@H](C(=O)O)C1` [Example 187, (S)-1-((R)-3-(4-(2-chloro-4-fluorophenyl)-2-oxo-2H-chromen-7-yl)-2-methylpropanoyl)piperidine-3-carboxylic acid], for which the IC50 was 100 nM.

In turn, `Cc1ccccc1-c1cc(=O)oc2cc(N(C)Cc3ncco3)ccc12` [Example 188, 7-(methyl(oxazol-2-ylmethyl)amino)-4-(o-tolyl)-2H-chromen-2-one] yielded a half-maximal inhibitory concentration (IC50) of 80 nM.

On to `Cc1ccccc1-c1cc(=O)oc2cc(N(C)CC(=O)NS(C)(=O)=O)ccc12` [Example 191, 2-(methyl(2-oxo-4-(o-tolyl)-2H-chromen-7-yl)amino)-N-(methylsulfonyl)acetamide], for which the IC50 is 7000 nM.

`Cc1ccccc1-c1cc(=O)oc2cc(NCc3ccnn3C)ccc12` [Example 192, 7-(((1-methyl-1H-pyrazol-5-yl)methyl)amino)-4-(o-tolyl)-2H-chromen-2-one] registered an IC50 of 2000 nM.

Turning to `Cc1ccccc1-c1cc(=O)oc2cc(N(C)Cc3ccnn3C)ccc12` [Example 193, 7-(methyl((1-methyl-1H-pyrazol-5-yl)methyl)amino)-4-(o-tolyl)-2H-chromen-2-one], 100 nM corresponded to half-maximal inhibition (IC50).

The compound `CC(C(N)=O)N(C)c1ccc2c(-c3ccccc3)cc(=O)oc2c1` (stereo not shown) [Example 194, 2-(methyl(2-oxo-4-phenyl-2H-chromen-7-yl)amino)propanamide] returned an IC50 of 300 nM.

`Cc1ccccc1-c1cc(=O)oc2cc(N(C)C(C)C(N)=O)ccc12` (stereo not shown) [Example 195, 2-(methyl(2-oxo-4-(o-tolyl)-2H-chromen-7-yl)amino)propanamide] displayed an IC50 of 50 nM.

In turn, `CC(=O)NC[C@@H]1CCN(C(=O)c2ccc3c(-c4ccccc4C)cc(=O)oc3c2)C1` [Example 196, (S)—N-((1-(2-oxo-4-(o-tolyl)-2H-chromene-7-carbonyl)pyrrolidin-3-yl)methyl)acetamide] displayed an IC50 of 42000 nM.

`COCC(Nc1ccc2c(-c3ccccc3C)cc(=O)oc2c1)C(N)=O` (stereo not shown) [Example 199, 3-methoxy-2-((2-oxo-4-(o-tolyl)-2H-chromen-7-yl)amino)propanamide] showed an IC50 of 800 nM.

The compound `Cc1ccccc1-c1cc(=O)oc2cc(CC(C#N)CO)ccc12` (stereo not shown) [Example 200, 3-hydroxy-2-((2-oxo-4-(o-tolyl)-2H-chromen-7-yl)methyl)propanenitrile] yielded an IC50 of 3000 nM.

The compound `COCC(C#N)Cc1ccc2c(-c3ccccc3C)cc(=O)oc2c1` (stereo not shown) [Example 201, 3-methoxy-2-((2-oxo-4-(o-tolyl)-2H-chromen-7-yl)methyl)propanenitrile] displayed an IC50 of 2000 nM.

In the case of `COCC(C(N)=O)N(C)c1ccc2c(-c3ccccc3C)cc(=O)oc2c1` (stereo not shown) [Example 202, 3-methoxy-2-(methyl(2-oxo-4-(o-tolyl)-2H-chromen-7-yl)amino)propanamide], the IC50 came to 2000 nM.

In turn, `Cc1ccccc1-c1cc(=O)oc2cc(N(C)Cc3ccon3)ccc12` [Example 204, 7-((isoxazol-3-ylmethyl)(methyl)amino)-4-(o-tolyl)-2H-chromen-2-one] showed an IC50 of 30 nM.

Turning to `CC(=O)N(C)CC1CCN(C(=O)c2ccc3c(-c4ccccc4C)cc(=O)oc3c2)C1` (stereo not shown) [Example 205, N-methyl-N-((1-(2-oxo-4-(o-tolyl)-2H-chromene-7-carbonyl)pyrrolidin-3-yl)methyl)acetamide], the half-inhibitory concentration (IC50) is over 100000 nM.

Take `Cc1ccccc1-c1cc(=O)oc2cc(N(C)Cc3ccc(=O)[nH]c3)ccc12` [Example 209, 5-((methyl(2-oxo-4-(o-tolyl)-2H-chromen-7-yl)amino)methyl)pyridin-2 (1H)-one]: the 50% inhibitory concentration (IC50) was determined as 300 nM.

Turning to `Cc1ccccc1-c1cc(=O)oc2cc(NC(C)(C)C(N)=O)ccc12` [Example 210, 2-methyl-2-((2-oxo-4-(o-tolyl)-2H-chromen-7-yl)amino)propanamide], 3000 nM corresponded to half-maximal inhibition (IC50).

In turn, `CC[C@@H](Nc1ccc2c(-c3ccccc3C)cc(=O)oc2c1)C(N)=O` [Example 211, (R)-2-((2-oxo-4-(o-tolyl)-2H-chromen-7-yl)amino)butanamide] returned an IC50 of 1000 nM.

With `CC[C@H](Nc1ccc2c(-c3ccccc3C)cc(=O)oc2c1)C(N)=O` [Example 212, (S)-2-((2-oxo-4-(o-tolyl)-2H-chromen-7-yl)amino)butanamide], it took 600 nM to reach half-maximal inhibition (IC50).

Turning to `Cc1ccccc1-c1cc(=O)oc2cc(NC3(C(N)=O)CC3)ccc12` [Example 213, 1-((2-oxo-4-(o-tolyl)-2H-chromen-7-yl)amino)cyclopropane-1-carboxamide], half-maximal inhibition (IC50) required 21000 nM.

In the case of `Cc1ccccc1-c1cc(=O)oc2cc(NCC3(C(=O)O)CC3)ccc12` [Example 216, 1-(((2-oxo-4-(o-tolyl)-2H-chromen-7-yl)amino)methyl)cyclopropane-1-carboxylic acid], half-maximal inhibition (IC50) required 600 nM.

`Cc1ccccc1-c1cc(=O)oc2cc(N(C)CC3(C(=O)O)CC3)ccc12` [Example 217, 1-((methyl(2-oxo-4-(o-tolyl)-2H-chromen-7-yl)amino)methyl)cyclopropane-1-carboxylic acid] had an IC50 of 90 nM.

`COCCNC(=O)CN(C)c1ccc2c(-c3ccccc3C)cc(=O)oc2c1` [Example 218, N-(2-methoxyethyl)-2-(methyl(2-oxo-4-(o-tolyl)-2H-chromen-7-yl)amino)acetamide] registered an IC50 of 200 nM.

Regarding `Cc1ccccc1-c1cc(=O)oc2cc(N(C)CC(=O)NCCO)ccc12` [Example 219, N-(2-hydroxyethyl)-2-(methyl(2-oxo-4-(o-tolyl)-2H-chromen-7-yl)amino)acetamide], the IC50 stood at 200 nM.

In the case of `Cc1ccccc1-c1cc(=O)oc2cc(N(C)CC(=O)NCC(F)(F)F)ccc12` [Example 220, 2-(methyl(2-oxo-4-(o-tolyl)-2H-chromen-7-yl)amino)-N-(2,2,2-trifluoroethyl)acetamide], half-maximal inhibition (IC50) required 100 nM.

As to `Cc1ccccc1-c1cc(=O)oc2cc(N(C)CC(=O)NCCN(C)C)ccc12` [Example 221, N-(2-(dimethylamino)ethyl)-2-(methyl(2-oxo-4-(o-tolyl)-2H-chromen-7-yl)amino)acetamide], the half-inhibitory concentration (IC50) stood at 2000 nM.

With `Cc1ccccc1-c1cc(=O)oc2cc(CN(C)C(=O)N3CCC[C@@H](C(=O)O)C3)ccc12` [Example 222, (R)-1-(methyl((2-oxo-4-(o-tolyl)-2H-chromen-7-yl)methyl)carbamoyl)piperidine-3-carboxylic acid], the IC50 was found to be 2000 nM.

As to `Cc1ccccc1-c1cc(=O)oc2cc(N(C)CC(=O)NCC(=O)O)ccc12` [Example 223, N-methyl-N-(2-oxo-4-(o-tolyl)-2H-chromen-7-yl)glycylglycine], the IC50 worked out at 800 nM.

In turn, `CCOC(=O)[C@@H]1C[C@@H]1c1ccc2c(-c3ccccc3C)cc(=O)oc2c1` [Example 224, ethyl (1R,2S)-2-(2-oxo-4-(o-tolyl)-2H-chromen-7-yl)cyclopropane-1-carboxylate] came in with an IC50 of 300 nM.

`CCOC(=O)[C@H]1C[C@@H]1c1ccc2c(-c3ccccc3C)cc(=O)oc2c1` [Example 225, ethyl (1S,2S)-2-(2-oxo-4-(o-tolyl)-2H-chromen-7-yl)cyclopropane-1-carboxylate] came in with an IC50 of 700 nM.

Values taken from patent US20250326732A1 (Pretzel Therapeutics, Inc., priority 2021, published 2025).
